Literature values in US12661368B2, “Maribavir isomers, compositions, methods of making and methods of using” (Takeda Pharmaceutical Company Limited, priority 2010, dated 2026).

Key:
cytomegalovirus (CMV) [1] = settings: Phase 2, 200 Study
cytomegalovirus (CMV) [2] = settings: Phase 3, 300 Study, allogeneic SCT patients, prophylaxis

For `CC(C)Nc1nc2cc(Cl)c(Cl)cc2n1[C@H]1O[C@@H](CO)[C@H](O)[C@@H]1O` [maribavir, 5,6-dichloro-2-(isopropylamino)-1-(β-L-ribofuranosyl)-1H-benzimidazole], the tolerability profile (cytomegalovirus (CMV) [1]; administration for up to 12 weeks, SCT patients) is given as “favorable tolerability profile”, the “rate of reactivation of CMV in recipients of allogeneic stem cell (bone marrow) transplants” value (cytomegalovirus (CMV) [1]; prophylaxis, fasted dosing protocol, preliminary results) is given as “significant reduction” and the “key secondary endpoints of the study” value (cytomegalovirus (CMV) [2]) is given as “failed to meet its key secondary endpoints”. The “reducing the rate of CMV disease, maribavir versus placebo (primary analysis)” value (cytomegalovirus (CMV) [2]; dosing fasted or fed) was “no statistically significant difference”.
